Several values for one entry are separate records, joined by “and”; a condition that tells them apart may be missing. Equal entries are not always repeated.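 Values below derive from 48-hour exposures of cells grown in 96-well plates, with endpoints linearly interpolated between the two concentrations bracketing the appropriate inhibition level. At the GI50, growth is halved. Definition used: TGI = concentration required for complete inhibition of growth.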
These molecules were tested on SNB-19 CNS (assay: NCI tumour cell line growth inhibition, 48 h).
`CCOC(=O)c1c(CN2CCN(C)CC2)nc2ccc(Cl)cc2c1-c1ccccc1` was tested, and the GI50 was 12.7 µM and the TGI was 25.6 µM.
With `CCOc1ccc2cc(-c3nn(CC4CCNCC4)c4ncnc(N)c34)ccc2c1` the GI50 was 16.7 µM and the TGI was 34.5 µM.
`COc1ccccc1C(=O)N(Cc1ccccc1)c1ccc(Cl)c(C(=O)OC(C)C)c1` was tested, and the TGI was > 100 µM.
In the case of `OCCN(CO)CO`, the TGI is reported as > 100 µM.
With `CN1CC[C@H](c2c(O)cc(O)c3c(=O)cc(-c4ccccc4Cl)oc23)[C@H](O)C1` the GI50 was 0.0647 µM and the TGI was > 10 µM.
For `COc1ccc(C2=Nn3c(nnc3-n3nc(C)cc3C)SC2)cc1`, the GI50 was 0.0831 µM and the TGI was > 100 µM.
`CC(=O)Oc1cc2cnc3c4cc(OC(C)=O)c(OC(C)=O)cc4ccc3c2cc1OC(C)=O` gave a GI50 of 0.594 µM and a TGI of 65.9 µM.
`COc1cccc(-c2nc3sccn3c2-c2ccnc(NCCCNS(=O)(=O)c3ccccc3)c2)c1` was tested, and the GI50 was 4.92 µM and the TGI was > 100 µM.
For `CC1OC(OC2C(O)C(O)C(O)C(O)C2O)C(N)CC1N=C(N)C(=O)O` (stereo unspecified), the TGI was > 100 µM.
Work on `C=CC(=O)Nc1cc2c(Nc3ccc(F)c(Cl)c3)ncnc2cc1C#CC(C)(C)N1CCN(C)CC1` yielded a GI50 of 3.58 µM and a TGI of 5.05 µM.
`CSC1=Nc2c(c(C)c(-c3ccccc3)n2COC(CO)CO)C2=NC(=O)CC(C)N12` (stereo unspecified) was tested, and the GI50 was > 100 µM and the TGI was > 100 µM.
`NCCCN=c1ccc2c3c1c(O)c1c(O)ccc(=O)c1c3[nH]n2CCNCCO` was tested, and the GI50 was 0.821 µM and the TGI was 6.57 µM and 14.1 µM.
For `C=C1C[C@@H]2O[C@H]3[C@H]4[C@@H](CC[C@@](C)(OC(=O)CCC)[C@H]42)[C@@H](C)C(=O)O[C@@]3(C)CC[C@H]1OO`, the GI50 was 53.8 µM and the TGI was > 100 µM.

Each molecule was assayed on OVCAR-4 ovarian (assay: NCI tumour cell line growth inhibition, 48 h).
`CCOC(=O)c1c(CN2CCN(C)CC2)nc2ccc(Cl)cc2c1-c1ccccc1` gave a GI50 of 4.98 µM and a TGI of 17.4 µM.
`CCOc1ccc2cc(-c3nn(CC4CCNCC4)c4ncnc(N)c34)ccc2c1` gave a GI50 of 10.9 µM and a TGI of 33.4 µM.
In the case of `COc1ccccc1C(=O)N(Cc1ccccc1)c1ccc(Cl)c(C(=O)OC(C)C)c1`, the TGI is reported as > 100 µM.
`OCCN(CO)CO` was tested, and the TGI was > 100 µM.
`CN1CC[C@H](c2c(O)cc(O)c3c(=O)cc(-c4ccccc4Cl)oc23)[C@H](O)C1` was tested, and the GI50 was 0.14 µM and the TGI was 1.54 µM.
For `COc1ccc(C2=Nn3c(nnc3-n3nc(C)cc3C)SC2)cc1`, the GI50 was 4.53 µM and the TGI was > 100 µM.
For `CC(=O)Oc1cc2cnc3c4cc(OC(C)=O)c(OC(C)=O)cc4ccc3c2cc1OC(C)=O`, the GI50 was 1.35 µM and the TGI was > 100 µM.
In the case of `COc1cccc(-c2nc3sccn3c2-c2ccnc(NCCCNS(=O)(=O)c3ccccc3)c2)c1`, the GI50 is reported as 2.87 µM and the TGI is reported as > 100 µM.
`CC1OC(OC2C(O)C(O)C(O)C(O)C2O)C(N)CC1N=C(N)C(=O)O` (stereo unspecified) was tested, and the TGI was > 100 µM.
In the case of `C=CC(=O)Nc1cc2c(Nc3ccc(F)c(Cl)c3)ncnc2cc1C#CC(C)(C)N1CCN(C)CC1`, the GI50 is reported as 1.32 µM and the TGI is reported as 2.86 µM.
`CSC1=Nc2c(c(C)c(-c3ccccc3)n2COC(CO)CO)C2=NC(=O)CC(C)N12` (stereo unspecified) was tested, and the GI50 was > 100 µM and the TGI was > 100 µM.
For `NCCCN=c1ccc2c3c1c(O)c1c(O)ccc(=O)c1c3[nH]n2CCNCCO`, the TGI was 10.5 µM and 20.1 µM.
Work on `C=C1C[C@@H]2O[C@H]3[C@H]4[C@@H](CC[C@@](C)(OC(=O)CCC)[C@H]42)[C@@H](C)C(=O)O[C@@]3(C)CC[C@H]1OO` yielded a GI50 of 19.5 µM and a TGI of 40.2 µM.

Each molecule was assayed on RPMI-8226 leukemia (assay: NCI tumour cell line growth inhibition, 48 h).
With `CCOC(=O)c1c(CN2CCN(C)CC2)nc2ccc(Cl)cc2c1-c1ccccc1` the GI50 was 2980 nM and the TGI was 12.7 µM.
With `CCOc1ccc2cc(-c3nn(CC4CCNCC4)c4ncnc(N)c34)ccc2c1` the GI50 was 14000 nM and the TGI was 34.6 µM.
In the case of `COc1ccccc1C(=O)N(Cc1ccccc1)c1ccc(Cl)c(C(=O)OC(C)C)c1`, the TGI is reported as 29 µM.
For `OCCN(CO)CO`, the TGI was > 100 µM.
For `CN1CC[C@H](c2c(O)cc(O)c3c(=O)cc(-c4ccccc4Cl)oc23)[C@H](O)C1`, the GI50 was 76 nM and the TGI was > 2.32 µM.
In the case of `COc1ccc(C2=Nn3c(nnc3-n3nc(C)cc3C)SC2)cc1`, the GI50 is reported as 60.5 nM and the TGI is reported as > 70.3 µM.
For `CC(=O)Oc1cc2cnc3c4cc(OC(C)=O)c(OC(C)=O)cc4ccc3c2cc1OC(C)=O`, the GI50 was 1660 nM and the TGI was > 100 µM.
`COc1cccc(-c2nc3sccn3c2-c2ccnc(NCCCNS(=O)(=O)c3ccccc3)c2)c1` was tested, and the GI50 was 1610 nM and the TGI was 4.26 µM.
In the case of `CC1OC(OC2C(O)C(O)C(O)C(O)C2O)C(N)CC1N=C(N)C(=O)O` (stereo unspecified), the TGI is reported as > 100 µM.
Work on `C=CC(=O)Nc1cc2c(Nc3ccc(F)c(Cl)c3)ncnc2cc1C#CC(C)(C)N1CCN(C)CC1` yielded a GI50 of 1770 nM and a TGI of 5.17 µM.
In the case of `CSC1=Nc2c(c(C)c(-c3ccccc3)n2COC(CO)CO)C2=NC(=O)CC(C)N12` (stereo unspecified), the GI50 is reported as > 100000 nM and the TGI is reported as > 100 µM.
`NCCCN=c1ccc2c3c1c(O)c1c(O)ccc(=O)c1c3[nH]n2CCNCCO` was tested, and the GI50 was 2930 nM and the TGI was 9.94 µM and 22.3 µM.
For `C=C1C[C@@H]2O[C@H]3[C@H]4[C@@H](CC[C@@](C)(OC(=O)CCC)[C@H]42)[C@@H](C)C(=O)O[C@@]3(C)CC[C@H]1OO`, the GI50 was 14000 nM and the TGI was 28.8 µM.

These molecules were tested on A498 renal (assay: NCI tumour cell line growth inhibition, 48 h).
`CCOC(=O)c1c(CN2CCN(C)CC2)nc2ccc(Cl)cc2c1-c1ccccc1` was tested, and the GI50 was 4750 nM and the TGI was 17.2 µM.
`CCOc1ccc2cc(-c3nn(CC4CCNCC4)c4ncnc(N)c34)ccc2c1` showed a GI50 of 11200 nM and a TGI of 24.9 µM.
With `COc1ccccc1C(=O)N(Cc1ccccc1)c1ccc(Cl)c(C(=O)OC(C)C)c1` the TGI was > 100 µM.
`OCCN(CO)CO` was tested, and the TGI was > 100 µM.
In the case of `CN1CC[C@H](c2c(O)cc(O)c3c(=O)cc(-c4ccccc4Cl)oc23)[C@H](O)C1`, the GI50 is reported as 21.5 nM and the TGI is reported as 0.062 µM.
With `COc1ccc(C2=Nn3c(nnc3-n3nc(C)cc3C)SC2)cc1` the GI50 was 30.3 nM and the TGI was 0.207 µM.
`CC(=O)Oc1cc2cnc3c4cc(OC(C)=O)c(OC(C)=O)cc4ccc3c2cc1OC(C)=O` was tested, and the GI50 was 443 nM and the TGI was 1.84 µM.
In the case of `COc1cccc(-c2nc3sccn3c2-c2ccnc(NCCCNS(=O)(=O)c3ccccc3)c2)c1`, the GI50 is reported as 2920 nM and the TGI is reported as > 100 µM.
`CC1OC(OC2C(O)C(O)C(O)C(O)C2O)C(N)CC1N=C(N)C(=O)O` (stereo unspecified) was tested, and the TGI was > 100 µM.
Work on `C=CC(=O)Nc1cc2c(Nc3ccc(F)c(Cl)c3)ncnc2cc1C#CC(C)(C)N1CCN(C)CC1` yielded a GI50 of 1210 nM and a TGI of 3.94 µM.
For `CSC1=Nc2c(c(C)c(-c3ccccc3)n2COC(CO)CO)C2=NC(=O)CC(C)N12` (stereo unspecified), the GI50 was > 100000 nM and the TGI was > 100 µM.
For `NCCCN=c1ccc2c3c1c(O)c1c(O)ccc(=O)c1c3[nH]n2CCNCCO`, the TGI was 7.19 µM and 8.57 µM.
In the case of `C=C1C[C@@H]2O[C@H]3[C@H]4[C@@H](CC[C@@](C)(OC(=O)CCC)[C@H]42)[C@@H](C)C(=O)O[C@@]3(C)CC[C@H]1OO`, the GI50 is reported as > 100000 nM and the TGI is reported as > 100 µM.

The molecules below were run on NCI/ADR-RES ovarian (assay: NCI tumour cell line growth inhibition, 48 h).
In the case of `CCOC(=O)c1c(CN2CCN(C)CC2)nc2ccc(Cl)cc2c1-c1ccccc1`, the GI50 is reported as 5350 nM and the TGI is reported as 14.5 µM.
In the case of `CCOc1ccc2cc(-c3nn(CC4CCNCC4)c4ncnc(N)c34)ccc2c1`, the GI50 is reported as 15600 nM and the TGI is reported as 29.8 µM.
In the case of `COc1ccccc1C(=O)N(Cc1ccccc1)c1ccc(Cl)c(C(=O)OC(C)C)c1`, the TGI is reported as 85.6 µM.
In the case of `OCCN(CO)CO`, the TGI is reported as > 100 µM.
`CN1CC[C@H](c2c(O)cc(O)c3c(=O)cc(-c4ccccc4Cl)oc23)[C@H](O)C1` was tested, and the GI50 was 116 nM and the TGI was > 10 µM.
For `COc1ccc(C2=Nn3c(nnc3-n3nc(C)cc3C)SC2)cc1`, the GI50 was 53.6 nM and the TGI was > 100 µM.
`CC(=O)Oc1cc2cnc3c4cc(OC(C)=O)c(OC(C)=O)cc4ccc3c2cc1OC(C)=O` was tested, and the GI50 was 1880 nM and the TGI was > 100 µM.
For `COc1cccc(-c2nc3sccn3c2-c2ccnc(NCCCNS(=O)(=O)c3ccccc3)c2)c1`, the GI50 was 2620 nM and the TGI was 8.7 µM.
In the case of `CC1OC(OC2C(O)C(O)C(O)C(O)C2O)C(N)CC1N=C(N)C(=O)O` (stereo unspecified), the TGI is reported as > 100 µM.
Molecule `C=CC(=O)Nc1cc2c(Nc3ccc(F)c(Cl)c3)ncnc2cc1C#CC(C)(C)N1CCN(C)CC1` has a GI50 of 2460 nM and a TGI of 7.65 µM.
In the case of `CSC1=Nc2c(c(C)c(-c3ccccc3)n2COC(CO)CO)C2=NC(=O)CC(C)N12` (stereo unspecified), the GI50 is reported as > 100000 nM and the TGI is reported as > 100 µM.
In the case of `NCCCN=c1ccc2c3c1c(O)c1c(O)ccc(=O)c1c3[nH]n2CCNCCO`, the GI50 is reported as 20100 nM and the TGI is reported as 25 µM and > 236 µM.

Source: PubChem BioAssay (NCI)
